Reference: the supplement of paper PMC10307832

What was measured:
Assay in all cases: relative viability (nuclei count vs DMSO), 5 days (fraction); higher = more cells survive
BMX-IN-1 + Crizotinib = compound: C=CC(=O)Nc1cc(-n2c(=O)ccc3cnc4ccc(-c5ccc(NS(C)(=O)=O)cc5)cc4c32)ccc1C [BMX-IN-1] + C[C@@H](Oc1cc(-c2cnn(C3CCNCC3)c2)cnc1N)c1c(Cl)ccc(F)c1Cl [Crizotinib] (partner 1 µM)
Method in brief: (§1)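 The day after seeding in 1536-well plates, lung cancer cell lines were treated by pin tool with a single drug, or with a fixed anchor-drug dose together with five library-drug doses (not always all listed) in √10 steps. After 5 days, a combined fix-and-stain solution (final 0.05% Triton X-100, 1% formaldehyde, 1 ug/ml Hoechst) was added. Nuclei counted on 4× images gave relative viability as treated counts over vehicle counts, reported as the median of duplicate plates.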

BMX-IN-1 + Bortezomib = compound: C=CC(=O)Nc1cc(-n2c(=O)ccc3cnc4ccc(-c5ccc(NS(C)(=O)=O)cc5)cc4c32)ccc1C [BMX-IN-1] + CC(C)C[C@H](NC(=O)[C@H](Cc1ccccc1)NC(=O)c1cnccn1)B(O)O [Bortezomib] (partner 0.002 µM)
Method in brief: as §1

Ibrutinib + Bortezomib = compound: C=CC(=O)N1CCC[C@@H](n2nc(-c3ccc(Oc4ccccc4)cc3)c3c(N)ncnc32)C1 [Ibrutinib] + CC(C)C[C@H](NC(=O)[C@H](Cc1ccccc1)NC(=O)c1cnccn1)B(O)O [Bortezomib] (partner 0.002 µM)
Method in brief: as §1

BMX-IN-1 + Dasatinib = compound: C=CC(=O)Nc1cc(-n2c(=O)ccc3cnc4ccc(-c5ccc(NS(C)(=O)=O)cc5)cc4c32)ccc1C [BMX-IN-1] + Cc1nc(Nc2ncc(C(=O)Nc3c(C)cccc3Cl)s2)cc(N2CCN(CCO)CC2)n1 [Dasatinib] (partner 0.075 µM)
Method in brief: as §1

UMC-11 gave a relative viability (BMX-IN-1 + Crizotinib; first compound 0.02 µM) of 0.821, a relative viability (BMX-IN-1 + Crizotinib; first compound 0.2 µM) of 0.579 and a relative viability (BMX-IN-1 + Crizotinib; first compound 0.6325 µM) of 0.633. For the same cell line, the relative viability (BMX-IN-1 + Crizotinib; first compound 2 µM) was 0.578, the relative viability (BMX-IN-1 + Bortezomib; first compound 0.02 µM) was 0.929 and the relative viability (BMX-IN-1 + Bortezomib; first compound 0.2 µM) was 0.625. The relative viability (BMX-IN-1 + Bortezomib; first compound 0.6325 µM) was 1.19, the relative viability (BMX-IN-1 + Bortezomib; first compound 2 µM) was 0.791 and the relative viability (Ibrutinib + Bortezomib; first compound 0.005 µM) was 0.664. It also gave a relative viability (Ibrutinib + Bortezomib; first compound 0.01581 µM) of 0.637, a relative viability (Ibrutinib + Bortezomib; first compound 0.05 µM) of 0.898 and a relative viability (Ibrutinib + Bortezomib; first compound 0.1581 µM) of 0.654. The relative viability (Ibrutinib + Bortezomib; first compound 0.5 µM) was 0.736, the relative viability (BMX-IN-1 + Dasatinib; first compound 0.02 µM) was 0.542 and the relative viability (BMX-IN-1 + Dasatinib; first compound 0.2 µM) was 0.591. For the same cell line, the relative viability (BMX-IN-1 + Dasatinib; first compound 0.6325 µM) was 0.549 and the relative viability (BMX-IN-1 + Dasatinib; first compound 2 µM) was 0.475.

For NCI-H1755, the relative viability (BMX-IN-1 + Crizotinib; first compound 0.02 µM) was 1.01, the relative viability (BMX-IN-1 + Crizotinib; first compound 0.2 µM) was 1.07 and the relative viability (BMX-IN-1 + Crizotinib; first compound 0.6325 µM) was 0.958. For the same cell line, the relative viability (BMX-IN-1 + Crizotinib; first compound 2 µM) was 0.843, the relative viability (BMX-IN-1 + Bortezomib; first compound 0.02 µM) was 0.971 and the relative viability (BMX-IN-1 + Bortezomib; first compound 0.2 µM) was 1. For the same cell line, the relative viability (BMX-IN-1 + Bortezomib; first compound 0.6325 µM) was 1, the relative viability (BMX-IN-1 + Bortezomib; first compound 2 µM) was 0.987 and the relative viability (Ibrutinib + Bortezomib; first compound 0.005 µM) was 0.914. The relative viability (Ibrutinib + Bortezomib; first compound 0.01581 µM) was 0.983, the relative viability (Ibrutinib + Bortezomib; first compound 0.05 µM) was 1.02 and the relative viability (Ibrutinib + Bortezomib; first compound 0.1581 µM) was 0.95. It also gave a relative viability (Ibrutinib + Bortezomib; first compound 0.5 µM) of 0.969, a relative viability (BMX-IN-1 + Dasatinib; first compound 0.02 µM) of 0.389 and a relative viability (BMX-IN-1 + Dasatinib; first compound 0.2 µM) of 0.452. The relative viability (BMX-IN-1 + Dasatinib; first compound 0.6325 µM) was 0.438 and the relative viability (BMX-IN-1 + Dasatinib; first compound 2 µM) was 0.48.

NCI-H1666 was tested, and the relative viability (BMX-IN-1 + Crizotinib; first compound 0.02 µM) was 1.08, the relative viability (BMX-IN-1 + Crizotinib; first compound 0.2 µM) was 0.98 and the relative viability (BMX-IN-1 + Crizotinib; first compound 0.6325 µM) was 1.05. The relative viability (BMX-IN-1 + Crizotinib; first compound 2 µM) was 0.906, the relative viability (BMX-IN-1 + Bortezomib; first compound 0.02 µM) was 0.799 and the relative viability (BMX-IN-1 + Bortezomib; first compound 0.2 µM) was 0.821. It also gave a relative viability (BMX-IN-1 + Bortezomib; first compound 0.6325 µM) of 0.823, a relative viability (BMX-IN-1 + Bortezomib; first compound 2 µM) of 0.728 and a relative viability (Ibrutinib + Bortezomib; first compound 0.005 µM) of 0.768. It also gave a relative viability (Ibrutinib + Bortezomib; first compound 0.01581 µM) of 0.79, a relative viability (Ibrutinib + Bortezomib; first compound 0.05 µM) of 0.802 and a relative viability (Ibrutinib + Bortezomib; first compound 0.1581 µM) of 0.695. It also gave a relative viability (Ibrutinib + Bortezomib; first compound 0.5 µM) of 0.977, a relative viability (BMX-IN-1 + Dasatinib; first compound 0.02 µM) of 0.905 and a relative viability (BMX-IN-1 + Dasatinib; first compound 0.2 µM) of 0.839. For the same cell line, the relative viability (BMX-IN-1 + Dasatinib; first compound 0.6325 µM) was 0.94 and the relative viability (BMX-IN-1 + Dasatinib; first compound 2 µM) was 0.845.

In the case of NCI-H23, the relative viability (BMX-IN-1 + Crizotinib; first compound 0.02 µM) is reported as 0.501, the relative viability (BMX-IN-1 + Crizotinib; first compound 0.2 µM) is reported as 0.538 and the relative viability (BMX-IN-1 + Crizotinib; first compound 0.6325 µM) is reported as 0.419. It also gave a relative viability (BMX-IN-1 + Crizotinib; first compound 2 µM) of 0.5, a relative viability (BMX-IN-1 + Bortezomib; first compound 0.02 µM) of 1.23 and a relative viability (BMX-IN-1 + Bortezomib; first compound 0.2 µM) of 1.46. For the same cell line, the relative viability (BMX-IN-1 + Bortezomib; first compound 0.6325 µM) was 1.18, the relative viability (BMX-IN-1 + Bortezomib; first compound 2 µM) was 1.06 and the relative viability (Ibrutinib + Bortezomib; first compound 0.005 µM) was 0.839. It also gave a relative viability (Ibrutinib + Bortezomib; first compound 0.01581 µM) of 1.02, a relative viability (Ibrutinib + Bortezomib; first compound 0.05 µM) of 0.938 and a relative viability (Ibrutinib + Bortezomib; first compound 0.1581 µM) of 1.07. The relative viability (Ibrutinib + Bortezomib; first compound 0.5 µM) was 1.13, the relative viability (BMX-IN-1 + Dasatinib; first compound 0.02 µM) was 0.839 and the relative viability (BMX-IN-1 + Dasatinib; first compound 0.2 µM) was 0.994. It also gave a relative viability (BMX-IN-1 + Dasatinib; first compound 0.6325 µM) of 0.855 and a relative viability (BMX-IN-1 + Dasatinib; first compound 2 µM) of 0.722.

Work on COR-L23 yielded a relative viability (BMX-IN-1 + Crizotinib; first compound 0.02 µM) of 0.942, a relative viability (BMX-IN-1 + Crizotinib; first compound 0.2 µM) of 0.641 and a relative viability (BMX-IN-1 + Crizotinib; first compound 0.6325 µM) of 0.864. The relative viability (BMX-IN-1 + Crizotinib; first compound 2 µM) was 0.767, the relative viability (BMX-IN-1 + Bortezomib; first compound 0.02 µM) was 1.27 and the relative viability (BMX-IN-1 + Bortezomib; first compound 0.2 µM) was 1.54. The relative viability (BMX-IN-1 + Bortezomib; first compound 0.6325 µM) was 1.09, the relative viability (BMX-IN-1 + Bortezomib; first compound 2 µM) was 1.05 and the relative viability (Ibrutinib + Bortezomib; first compound 0.005 µM) was 1.13. The relative viability (Ibrutinib + Bortezomib; first compound 0.01581 µM) was 0.992, the relative viability (Ibrutinib + Bortezomib; first compound 0.05 µM) was 0.983 and the relative viability (Ibrutinib + Bortezomib; first compound 0.1581 µM) was 0.917. It also gave a relative viability (Ibrutinib + Bortezomib; first compound 0.5 µM) of 1.1, a relative viability (BMX-IN-1 + Dasatinib; first compound 0.02 µM) of 0.523 and a relative viability (BMX-IN-1 + Dasatinib; first compound 0.2 µM) of 0.544. It also gave a relative viability (BMX-IN-1 + Dasatinib; first compound 0.6325 µM) of 0.594 and a relative viability (BMX-IN-1 + Dasatinib; first compound 2 µM) of 0.528.

PC-14 was tested, and the relative viability (BMX-IN-1 + Crizotinib; first compound 0.02 µM) was 0.909, the relative viability (BMX-IN-1 + Crizotinib; first compound 0.2 µM) was 1.07 and the relative viability (BMX-IN-1 + Crizotinib; first compound 0.6325 µM) was 0.964. It also gave a relative viability (BMX-IN-1 + Crizotinib; first compound 2 µM) of 0.987, a relative viability (BMX-IN-1 + Bortezomib; first compound 0.02 µM) of 0.934 and a relative viability (BMX-IN-1 + Bortezomib; first compound 0.2 µM) of 0.953. The relative viability (BMX-IN-1 + Bortezomib; first compound 0.6325 µM) was 1.01, the relative viability (BMX-IN-1 + Bortezomib; first compound 2 µM) was 0.954 and the relative viability (Ibrutinib + Bortezomib; first compound 0.005 µM) was 0.891. For the same cell line, the relative viability (Ibrutinib + Bortezomib; first compound 0.01581 µM) was 0.878, the relative viability (Ibrutinib + Bortezomib; first compound 0.05 µM) was 0.835 and the relative viability (Ibrutinib + Bortezomib; first compound 0.1581 µM) was 0.819. The relative viability (Ibrutinib + Bortezomib; first compound 0.5 µM) was 0.744, the relative viability (BMX-IN-1 + Dasatinib; first compound 0.02 µM) was 0.313 and the relative viability (BMX-IN-1 + Dasatinib; first compound 0.2 µM) was 0.227. The relative viability (BMX-IN-1 + Dasatinib; first compound 0.6325 µM) was 0.339 and the relative viability (BMX-IN-1 + Dasatinib; first compound 2 µM) was 0.279.

Work on LCLC-97TM1 yielded a relative viability (BMX-IN-1 + Crizotinib; first compound 0.02 µM) of 0.343, a relative viability (BMX-IN-1 + Crizotinib; first compound 0.2 µM) of 0.429 and a relative viability (BMX-IN-1 + Crizotinib; first compound 0.6325 µM) of 0.363. The relative viability (BMX-IN-1 + Crizotinib; first compound 2 µM) was 0.387, the relative viability (BMX-IN-1 + Bortezomib; first compound 0.02 µM) was 0.332 and the relative viability (BMX-IN-1 + Bortezomib; first compound 0.2 µM) was 0.562. The relative viability (BMX-IN-1 + Bortezomib; first compound 0.6325 µM) was 0.629, the relative viability (BMX-IN-1 + Bortezomib; first compound 2 µM) was 0.505 and the relative viability (Ibrutinib + Bortezomib; first compound 0.005 µM) was 0.447. The relative viability (Ibrutinib + Bortezomib; first compound 0.01581 µM) was 0.851, the relative viability (Ibrutinib + Bortezomib; first compound 0.05 µM) was 0.385 and the relative viability (Ibrutinib + Bortezomib; first compound 0.1581 µM) was 0.153. The relative viability (Ibrutinib + Bortezomib; first compound 0.5 µM) was 0.732, the relative viability (BMX-IN-1 + Dasatinib; first compound 0.02 µM) was 0.927 and the relative viability (BMX-IN-1 + Dasatinib; first compound 0.2 µM) was 0.893. It also gave a relative viability (BMX-IN-1 + Dasatinib; first compound 0.6325 µM) of 1 and a relative viability (BMX-IN-1 + Dasatinib; first compound 2 µM) of 0.943.

HOP-62 gave a relative viability (BMX-IN-1 + Crizotinib; first compound 0.02 µM) of 0.76, a relative viability (BMX-IN-1 + Crizotinib; first compound 0.2 µM) of 1.04 and a relative viability (BMX-IN-1 + Crizotinib; first compound 0.6325 µM) of 0.98. For the same cell line, the relative viability (BMX-IN-1 + Crizotinib; first compound 2 µM) was 0.959, the relative viability (BMX-IN-1 + Bortezomib; first compound 0.02 µM) was 0.934 and the relative viability (BMX-IN-1 + Bortezomib; first compound 0.2 µM) was 0.851. The relative viability (BMX-IN-1 + Bortezomib; first compound 0.6325 µM) was 0.769, the relative viability (BMX-IN-1 + Bortezomib; first compound 2 µM) was 0.6 and the relative viability (Ibrutinib + Bortezomib; first compound 0.005 µM) was 0.459. For the same cell line, the relative viability (Ibrutinib + Bortezomib; first compound 0.01581 µM) was 1, the relative viability (Ibrutinib + Bortezomib; first compound 0.05 µM) was 0.816 and the relative viability (Ibrutinib + Bortezomib; first compound 0.1581 µM) was 0.834. The relative viability (Ibrutinib + Bortezomib; first compound 0.5 µM) was 0.804, the relative viability (BMX-IN-1 + Dasatinib; first compound 0.02 µM) was 0.587 and the relative viability (BMX-IN-1 + Dasatinib; first compound 0.2 µM) was 0.786. It also gave a relative viability (BMX-IN-1 + Dasatinib; first compound 0.6325 µM) of 0.768 and a relative viability (BMX-IN-1 + Dasatinib; first compound 2 µM) of 0.729.
